Laboratory results: ChEMBL document CHEMBL4184149, “Discovery and process development of a novel TACE inhibitor for the topical treatment of psoriasis” (Bioorg Med Chem, 2018)
Activity calls are given as the source filed them. No cut-off for these calls is given here.

Experiments:
[1] = Photoirritancy factor, ratio of EC50 for human neonatal keratinocytes under dark condition to EC50 for human neonatal keratinocytes under 5 J/cm2 UV light exposure; format: toxicity; settings: read-out: Ratio EC50
[2] = target: Disintegrin and metalloproteinase domain-containing protein 17 (Homo sapiens, UniProt P78536); assay: Inhibition of TACE in NHEK assessed as reduction in LPS/TPA-stimulated TNFalpha production preincubated for 1 hr followed by LPS/TPA stimulation for 24 hrs by HTRF assay
Chain of Disintegrin and metalloproteinase domain-containing protein 17 (P78536 whole entry, the tested form may be a part): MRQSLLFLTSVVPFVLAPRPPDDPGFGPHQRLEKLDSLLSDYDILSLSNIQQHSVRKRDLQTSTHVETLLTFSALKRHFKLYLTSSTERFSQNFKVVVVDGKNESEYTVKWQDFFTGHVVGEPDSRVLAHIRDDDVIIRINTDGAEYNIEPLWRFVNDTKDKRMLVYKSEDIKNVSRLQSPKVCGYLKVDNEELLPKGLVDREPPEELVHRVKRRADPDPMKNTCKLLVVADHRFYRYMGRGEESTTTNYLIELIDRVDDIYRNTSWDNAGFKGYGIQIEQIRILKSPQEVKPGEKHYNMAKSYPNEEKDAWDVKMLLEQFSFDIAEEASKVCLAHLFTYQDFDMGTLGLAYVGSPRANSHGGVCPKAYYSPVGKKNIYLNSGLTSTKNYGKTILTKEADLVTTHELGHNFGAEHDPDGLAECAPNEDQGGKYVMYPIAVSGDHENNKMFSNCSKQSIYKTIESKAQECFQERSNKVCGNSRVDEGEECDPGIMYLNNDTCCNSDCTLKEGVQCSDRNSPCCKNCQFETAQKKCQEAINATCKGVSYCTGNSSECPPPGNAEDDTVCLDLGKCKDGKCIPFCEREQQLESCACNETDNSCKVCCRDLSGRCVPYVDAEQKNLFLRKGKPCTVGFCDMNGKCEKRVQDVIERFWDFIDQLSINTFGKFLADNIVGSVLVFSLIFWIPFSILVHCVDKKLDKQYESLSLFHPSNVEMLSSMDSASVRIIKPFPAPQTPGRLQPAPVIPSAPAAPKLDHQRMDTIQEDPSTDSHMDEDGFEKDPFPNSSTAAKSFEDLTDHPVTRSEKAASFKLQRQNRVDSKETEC

[3] = target: T1, Disintegrin and metalloproteinase domain-containing protein 10 (Homo sapiens, UniProt O14672); assay: Inhibition of ADAM10 (unknown origin)
T1 sequence (O14672 whole entry): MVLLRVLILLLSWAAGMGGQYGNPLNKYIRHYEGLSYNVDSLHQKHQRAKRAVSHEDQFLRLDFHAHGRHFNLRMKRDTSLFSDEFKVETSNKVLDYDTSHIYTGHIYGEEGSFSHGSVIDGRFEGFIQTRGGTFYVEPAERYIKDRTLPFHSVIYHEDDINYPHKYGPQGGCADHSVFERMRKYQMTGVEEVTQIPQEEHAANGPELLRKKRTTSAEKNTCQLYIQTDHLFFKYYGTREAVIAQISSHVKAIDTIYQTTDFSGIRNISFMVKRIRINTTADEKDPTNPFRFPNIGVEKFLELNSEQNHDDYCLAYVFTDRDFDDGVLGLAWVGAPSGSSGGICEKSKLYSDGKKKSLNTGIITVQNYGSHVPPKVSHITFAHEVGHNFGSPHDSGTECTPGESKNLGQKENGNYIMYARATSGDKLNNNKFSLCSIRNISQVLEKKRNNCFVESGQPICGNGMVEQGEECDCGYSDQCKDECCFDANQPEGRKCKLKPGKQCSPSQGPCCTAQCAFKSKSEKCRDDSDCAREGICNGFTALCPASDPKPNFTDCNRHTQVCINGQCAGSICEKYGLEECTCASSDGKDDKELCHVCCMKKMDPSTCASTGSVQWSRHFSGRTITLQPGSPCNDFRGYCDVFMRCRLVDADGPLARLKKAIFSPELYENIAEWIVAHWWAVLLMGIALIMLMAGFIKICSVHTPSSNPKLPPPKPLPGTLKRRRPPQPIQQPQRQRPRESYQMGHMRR

Salmonella typhimurium [4] = assay: Mutagenicity in Salmonella typhimurium TA100 in presence of rat S9 fraction by Ames test; format: toxicity, organism-based; settings: salmonella enterica subsp. enterica serovar typhimurium
Salmonella typhimurium [5] = assay: Mutagenicity in Salmonella typhimurium TA100 in absence of rat S9 fraction by Ames test; format: toxicity, organism-based; settings: salmonella enterica subsp. enterica serovar typhimurium
TK6 = assay: Genotoxicity in human TK6 cells in presence of rat S9 fraction by Giemsa staining based micronucleus assay; format: toxicity, cell-based
Mus musculus [6] = assay: Antiinflammatory activity in topically applied oxazolone-induced chronic skin inflammation hairless SKH1 mouse model assessed as decrease in skin lesions applied topically for 10 days in combination with oxazolone; format: functional, organism-based
Mus musculus [7] = assay: Antiinflammatory activity in topically applied oxazolone-induced chronic skin inflammation hairless SKH1 mouse model assessed as decrease in TNFalpha secretion applied topically for 10 days in combination with oxazolone; format: functional, organism-based
Mus musculus [8] = assay: Antiinflammatory activity in topically applied oxazolone-induced chronic skin inflammation hairless SKH1 mouse model assessed as decrease in epidermis thickening applied topically for 10 days in combination with oxazolone; format: functional, organism-based

Structure (SMILES)	selectivity ratio [1]	IC50 [2] [nM]	IC50 [3] [nM]	Activity (Salmonella typhimurium [4])	Activity (Salmonella typhimurium [5])	Activity (TK6)	Activity (Mus musculus [6])	Activity (Mus musculus [7])	Activity (Mus musculus [8])
Cc1cc(COc2ccc(S(=O)(=O)N(C)C3(C(=O)NO)CN(C(=O)C(C)C)C3)cc2)c2ccccc2n1	1	3	950	Non-Toxic	Non-Toxic	Non-Toxic	Dose-dependent effect	Active	Active
Cc1cc(COc2ccc(S(=O)(=O)N(C)C3(C(=O)NO)CN(C(=O)CC(C)C)C3)cc2)c2ccccc2n1	1	20	1300	Non-Toxic	Non-Toxic	Non-Toxic			
